Read-outs that look alike come from different tables or passages of the source.

Here are results for 31 compounds from US20150344457A1, “METHODS OF INHIBITING PRMT5” (EPIZYME, INC., priority 2012, published 2015).

The target of this test is T1, PRMT5/MEP50 (Homo sapiens, UniProt O14744).
T1 construct: Expressed full-length human Flag-PRMT5/6His-MeP50 protein complex was purified; made in house; host or cells: Spodoptera frugiperda (SF9) insect cells, baculovirus (pDEST8)
The test is described as follows: PRMT5 Biochemical Assay (PRMT5/MEP50 enzyme assay on peptide substrate, 3H-SAM Flashplate). The settings on record: read-out: Biochemical IC50.

The mark [1] stands for this setting: Table A-2, PRMT5/MEP50 4 nM, 3H-SAM 75 nM, peptide 40 nM.
The mark [2] stands for this setting: Table B-2, PRMT5/MEP50 4 nM, 3H-SAM 75 nM, peptide 40 nM.
[3] abbreviates: PRMT5 biochemical assay, Table C-2.

T1 sequence (O14744 with tags, fused parts or gaps): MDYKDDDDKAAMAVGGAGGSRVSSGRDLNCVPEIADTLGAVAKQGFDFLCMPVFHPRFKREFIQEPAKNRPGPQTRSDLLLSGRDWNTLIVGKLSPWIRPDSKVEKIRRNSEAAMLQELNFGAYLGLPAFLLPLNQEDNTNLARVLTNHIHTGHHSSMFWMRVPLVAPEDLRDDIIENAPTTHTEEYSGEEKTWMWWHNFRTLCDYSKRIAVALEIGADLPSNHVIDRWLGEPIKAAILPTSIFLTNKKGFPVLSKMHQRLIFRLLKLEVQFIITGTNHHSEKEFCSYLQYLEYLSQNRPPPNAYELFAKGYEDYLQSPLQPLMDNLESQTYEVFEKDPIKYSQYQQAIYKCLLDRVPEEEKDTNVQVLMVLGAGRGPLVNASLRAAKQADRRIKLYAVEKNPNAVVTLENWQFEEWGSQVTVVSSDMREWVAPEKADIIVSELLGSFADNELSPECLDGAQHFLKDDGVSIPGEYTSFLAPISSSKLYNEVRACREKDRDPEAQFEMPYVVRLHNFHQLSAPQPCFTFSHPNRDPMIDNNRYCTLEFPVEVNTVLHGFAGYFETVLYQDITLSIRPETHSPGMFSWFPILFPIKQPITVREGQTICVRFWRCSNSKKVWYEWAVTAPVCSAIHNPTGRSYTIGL
T1 sequence (Q9BQA1 with tags, fused parts or gaps partner limits assumed): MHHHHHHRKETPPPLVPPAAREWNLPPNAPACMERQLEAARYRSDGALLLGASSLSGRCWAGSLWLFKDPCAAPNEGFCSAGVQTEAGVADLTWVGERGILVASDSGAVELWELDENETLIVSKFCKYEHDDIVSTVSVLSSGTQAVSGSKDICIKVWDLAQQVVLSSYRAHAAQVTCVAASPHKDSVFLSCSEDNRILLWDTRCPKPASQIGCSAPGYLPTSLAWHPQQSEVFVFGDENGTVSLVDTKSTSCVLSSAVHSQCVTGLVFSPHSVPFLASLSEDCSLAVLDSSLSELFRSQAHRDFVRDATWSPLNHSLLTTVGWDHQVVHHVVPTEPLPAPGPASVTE

On to `Cn1ccc2ccc(-c3ccnc(NCC(O)CN4CCc5ccccc5C4)c3)cc21` (stereo not shown) [Compound D227], for which the 50% inhibitory concentration (IC50) (Table D-2) was below 100 nM.
Turning to `CC(Oc1ccccc1S(N)(=O)=O)C(=O)NCC(O)CN1CCc2ccccc2C1` (stereo not shown) [Compound A126], the IC50 under setting [1] was above 50000 nM.
As for `CN1CCCC1c1cccc(C(=O)NCC(O)CN2CCc3ccccc3C2)c1` (stereo not shown) [Compound B34.], under setting [2], the IC50 is below 100 nM.
Take `O=C(COc1cccc2[nH]c(=O)cnc12)NCC(O)CN1CCc2ccccc2C1` (stereo not shown) [Compound A125]: the IC50 under setting [1] is 1000 to 10000 nM.
For the compound `OC(COc1ccc(OCC(O)CN2CCc3ccccc3C2)cc1)CN1CCc2ccccc2C1` (stereo not shown) [Compound D3], for the setting “Table D-2”, the IC50 was 101 to 1000 nM.
`CN(C)S(=O)(=O)c1ccccc1OCC(=O)NCC(O)CN1Cc2ccccc2C1` (stereo not shown) [Compound E15.]: the IC50 (Table E-2) is below 100 nM.
On to `CNC(=O)Cn1ccc2cnc(-c3cccc(OCC(O)CN4CCc5ccccc5C4)c3)nc21` (stereo not shown) [Compound D206], for which the IC50 (Table D-2) lay within 1000 to 10000 nM.
On to `O=C(COCc1cccnc1)NCC(O)CN1CCc2ccccc2C1` (stereo not shown) [Compound A152], for which, under setting [1], the IC50 was in the range of 1000 to 10000 nM.
On the same count and under the same terms, the value for `O=C(COc1ccccc1-c1c[nH]cn1)NCC(O)CN1CCc2ccccc2C1` (stereo not shown) [Compound A115] was 10000 to 50000 nM.
As to `OC(CNc1cc(-c2ccc3ncn(C4CNC4)c3c2)ccn1)CN1CCc2ccccc2C1` (stereo not shown) [Compound D229], under “Table D-2”, the IC50 is below 100 nM.
`NC(=O)c1cccc(C(=O)NCC(O)CN2CCc3ccccc3C2)c1` (stereo not shown) [Compound B25.]: under setting [2], the IC50 fell in the range of 101 to 1000 nM.
Regarding `Nc1cccc(C(=O)NCC(O)CN2Cc3ccccc3C2)c1` (stereo not shown) [Compound E2.], for the setting “Table E-2”, the IC50 is 1000 to 10000 nM.
As to `CC(=O)Nc1ncccc1OCC(=O)NCC(O)CN1CCc2ccccc2C1` (stereo not shown) [Compound A147], the IC50 under setting [1] was above 10000 nM.
Turning to `O=C(Cc1ccccc1)NC[C@H](O)CN1CCc2ccccc2C1` [Compound A55], the IC50 under setting [1] is 101 to 1000 nM.
In the case of `COc1ccc2c(c1)CN(CC(O)COc1cccc(-c3ccc4ncn(C)c4c3)c1)CC2` (stereo not shown) [Compound D177], the IC50 (Table D-2) is 10000 to 40000 nM.
Still for that read-out and setting: the value for `COc1cccc2c1CCN(CC(O)COc1cccc(-c3ccc4ncn(C)c4c3)c1)C2` (stereo not shown) [Compound D142] was 1000 to 10000 nM.
On to `O=C(Cc1ccncc1)NCC(O)CN1CCc2ccccc2C1` (stereo not shown) [Compound A51], for which, under setting [1], the IC50 lay in the range of 10000 to 50000 nM.
On to `O=C1CN(c2cccc3cccnc23)CCN1CC(O)CN1CCc2ccccc2C1` (stereo not shown) [Compound C4], for which the IC50 under setting [3] was below 100 nM.
For the compound `O=C1CN(C2CCOCC2)CCN1CC(O)CN1CCc2ccccc2C1` (stereo not shown) [Compound C23], under setting [3], the IC50 was 1000 to 10000 nM.
On to `Cn1cncc1C(=O)Nc1cccc(OCC(O)CN2CCc3ccccc3C2)c1` (stereo not shown) [Compound D195], for which the IC50 (Table D-2) lay within 1000 to 10000 nM.
Still for that read-out and setting: for `O=C(NC1CCOCC1)c1cccc(NCC(O)CN2CCc3ccccc3C2)c1` (stereo not shown) [Compound D79] the value was 10000 to 40000 nM.
Same read-out and setting: for `Cc1ccc(-c2cccc(OCC(O)CN3CCc4ccccc4C3)c2)cn1` (stereo not shown) [Compound D78] the value was 1000 to 10000 nM; for `OC(COCc1cc(-c2ccc(Cl)cc2)no1)CN1CCc2ccccc2C1` (stereo not shown) [Compound D11], 101 to 1000 nM.
Consider `NS(=O)(=O)c1ccccc1C(=O)NCC(O)CN1CCc2ccccc2C1` (stereo not shown) [Compound B33.], for which the IC50 under setting [2] was 1000 to 10000 nM.
In the case of `Cn1cnc2ccc(-c3cccc(OCC(O)CN4CCc5ccccc5C4CC(N)=O)c3)cc21` (stereo not shown) [Compound D202], for the setting “Table D-2”, the IC50 is above 40000 nM.
As to `CS(=O)(=O)c1ccc(OCC(=O)NCC(O)CN2CCc3ccccc3C2)cc1` (stereo not shown) [Compound A14], the IC50 under setting [1] is 1000 to 10000 nM.
On to `Cn1cnc2ccc(-c3cccc(OCC(O)CN4CCc5ccccc5C4Cc4ccccc4)c3)cc21` (stereo not shown) [Compound D143], for which the IC50 (Table D-2) is above 40000 nM.
As to `OC(COc1cccc(-c2cccnc2)c1)CN1CCc2ccccc2C1` (stereo not shown) [Compound D40], the IC50 (Table D-2) lay within 1000 to 10000 nM.
`CC(=O)N1CCN(CC(O)CN2CCc3ccccc3C2)C(=O)C1` (stereo not shown) [Compound C21]: the IC50 under setting [3] lay in the range of 1000 to 10000 nM.
In the case of `OC(COc1cccc(C2=CCCCC2)c1)CN1CCc2ccccc2C1` (stereo not shown) [Compound D57], under “Table D-2”, the IC50 lay in the range of 1000 to 10000 nM.
On to `CC(C)(C)OC(=O)Nc1ccccc1OCC(=O)NCC(O)CN1CCc2ccccc2C1` (stereo not shown) [Compound A141], for which, under setting [1], the IC50 lay in the range of 1000 to 10000 nM.
